Reference: article PMC12169663, “Deciphering the Tumor Uptake of Heterobivalent (SST2/Albumin) [^64Cu]Cu-NODAGA-cLAB-TATEs” (Journal of Medicinal Chemistry, 2025)
*1 amine or outer side, *2 acyl side, *3 side chain or, on linkers, in order; H or OH if unused. Where a SMILES comes first, the peptide text is derived from it. Bridges are numbered along the chain shown (N, C = ends). [ ]: non-standard residue; d: D form. The star is where a group is joined. Ala(1-(4-CO-Ph)triazol-4-yl) = O=C([C@H](Cc1cn(-c2ccc(C(=O)[*:3])cc2)nn1)N[*:1])[*:2]; X1 = O=C(O)CN1CCN(CC(=O)O)CCN([C@H](CCC(=O)*)C(=O)O)CC1; X2 = Cc1ccc(CCCC(=O)NCCCC[C@H](N*)C(N)=O)cc1; AEEA = NCCOCCOCC(=O)O

Legend:
MPC cells = assay: Cell binding and uptake (internalization) in MPC cells; type: cell-based, mouse
Protocol: Furthermore, the receptor-mediated endocytosis (referred to as internalization) of the novel compounds was assessed. The values for the internalized fraction (or “acid wash” resistant fraction) were >50% (Figure S5), which might indicate a similar pharmacological behavior of these ligands upon binding to SST2 as the parent ligand TATE.
Cell binding and uptake were measured as previously described. , MPC cells were seeded into collagen-coated 24-well microplates and cultivated for 4 days. All washing steps were performed using PBS containing 0.9 mM CaCl2 and 0.5 mM MgCl2. Total radioligand uptake was measured after incubation with the radioligand (A m = 30 GBq/μmol) at a final concentration of 20 nM in RPMI 1640 medium with GlutaMAX supplement (Thermo Fisher Scientific) for 1 h at 37 and 4 °C. Nonspecific binding was determined in the presence of 20 μM Acetyl-TATE. The uptake fraction was measured after acid wash of cell surface-bound radioligand with wash buffer containing 0.05 M glycine, pH 2.8, for 5 min. The activity of cell homogenates was measured using the γ counter Wizard (PerkinElmer). The protein content of cell homogenates was measured as described above.
Figure S5: Cell binding data
Data shown in A and B are mean values (±SD) of one experiment (NODAGA-cLAB(5/6)- TATE and NODAGA-cLAB4-scrTATE) or 3 experiments (±SEM, DOTA-EB-TATE), which were performed in sextuplicate. In C, the amount of specific “internalized” (acid resistant) radioligand (red bars in A, mean values) is expressed as percentage of specific total -bound radioligand (blue bars in A, mean values). The difference to 100% was assigned to “surface - bound” radioligand. For a better overview, the compound names were abbreviated. […]
specific binding of radioligand
Incubation at 37°C for 1 h
(% dose/mg of protein) Washing with
Incubation at 4°C for 1 h […]
(1 picture or pasted object on this page, not shown here)

SST2 = target: T1, SST2 (Mus musculus, UniProt P30875); assay: Saturation binding analysis to SST2 using intact MPC cells
T1 construct: a mouse pheochromocytoma cell line (MPC) with a high endogenous abundance of SST2 was used; endogenous in cells; host or cells: MPC (mouse pheochromocytoma) cells, intact
T1 sequence (P30875 whole entry): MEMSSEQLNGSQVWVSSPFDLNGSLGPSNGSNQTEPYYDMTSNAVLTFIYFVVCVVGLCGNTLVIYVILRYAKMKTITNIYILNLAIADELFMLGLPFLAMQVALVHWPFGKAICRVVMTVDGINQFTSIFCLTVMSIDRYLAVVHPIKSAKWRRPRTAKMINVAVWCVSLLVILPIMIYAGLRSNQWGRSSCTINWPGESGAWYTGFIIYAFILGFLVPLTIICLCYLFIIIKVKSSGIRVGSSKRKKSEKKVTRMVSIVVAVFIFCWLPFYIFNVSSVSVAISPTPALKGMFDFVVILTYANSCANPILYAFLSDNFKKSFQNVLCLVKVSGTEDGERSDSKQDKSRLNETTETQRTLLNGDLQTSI
Protocol: Binding assay was performed as previously described. , A number of 3 × 10^5 cells/cm^2 were seeded in collagen-coated 48-well microplates (CELLSTAR 48 Well Cell Culture Multiwell Plates, Polystyrene, Greiner Bio-One, item no. 677180) and grown for 3 days. For binding assays, the cell culture medium was removed and replaced by fresh medium supplemented with the radioligand (Am = 25 MBq/nmol) at increasing final concentrations between 0.321 and 40 nM (final sample volume: 0.2 mL). Nonspecific cell binding was measured in the presence of nonlabeled DOTA-TATE or Acetyl-TATE at a final concentration of 1 μM. Nonspecific binding to plastic surfaces was determined in cell-free wells at radioligand concentrations of 0.312, 1.25, 5, and 20 nM (with and without 1 μM nonlabeled DOTA-TATE or Acetyl-TATE; the values at the other radioligand concentrations were derived by linear regression). Samples were incubated for 60 min at 37 °C. Incubation was stopped by washing with ice-cold Dulbecco’s PBS. Cells were lysed with 0.1 M NaOH containing 1% (w/v) SDS. Activity was measured in cell homogenates and in a series of radioligand standards containing increasing molar amounts between 0.06 and 8 pmol using the gamma counter Wizard (PerkinElmer). The protein content of cell homogenates was measured as described above. Measurements for total binding were performed in triplicate, while measurements for nonspecific binding were performed in duplicates.
Calculations were performed as previously described. , Plots of “total binding” = f(radioligand) were analyzed by nonlinear regressions using the model of “one site-total, accounting for ligand depletion” as implemented in GraphPad Prism and plots of “nonspecific binding” = f(radioligand) were analyzed by linear regressions (Figure S3). For the ligand depletion model, the term “NS” was constrained to the respective slopes obtained by the linear regressions. The terms “SpecAct” (obtained with standard curves, Figure S4) and “Vol” (0.2 mL, assay volume) were also constrained. […]

[1] = tested on: MPC tumor-bearing NMRI-nu/nu mice; assay: Small-animal PET imaging in subcutaneous MPC tumor allograft model
Protocol: (§1) The biodistribution of [ ^ 64 Cu]­Cu-NODAGA-cLAB­(5/6)-TATE, [ ^ 64 Cu]­Cu-NODAGA-cLAB4- scr TATE, and [ ^ 64 Cu]­Cu-DOTA-EB-TATE was assessed in a subcutaneous MPC tumor allograft model via small-animal PET imaging (Figure A–D). The time-activity curves (TACs) for tumor, kidneys, and heart are shown in Figure A–D (for TACs of muscle and liver, see Figure S6) and the calculated areas under curves (AUC0–48h) and tumor-to-tissue ratios are graphically summarized in Figure E,F, respectively.
(§2) (A–D) Time-activity curves (SUV, decay-corrected, as a function of time up to 48 h) obtained by PET acquisition are depicted (0–2 h in dynamic mode and time points 5, 24, and 48 h p.i.; the x-axes are segmented accordingly). Data shown are mean values (±SD) of a group of MPC tumor-bearing NMRI-nu/nu mice (n = 2, but for cLAB6-TATE n = 4). […] (E) Calculated AUC0–48h values. Data shown are mean values (±SD). (F) Tumor/organ ratios based in the AUC0–48h values.
(§3) A number of 4 × 10^6 MPC cells were resuspended in 40 μL of Dulbecco’s phosphate-buffered saline and injected subcutaneously into the shoulder of 7–10-week-old female nude mice (Rj:NMRI-Foxn1^nu/nu, Janvier Laboratories, Le Genest-Saint-Isle, France). General anesthesia was induced and maintained with inhalation of 10% (v/v) desflurane in 30% oxygen/air (v/v). Tumor growth was monitored using caliper measurements. Animals were sacrificed using CO2 inhalation and cervical dislocation. When diameters of MPC tumors reached 8 ± 3 mm (volumes of 65–282 mm^3), small-animal positron emission tomography (PET) was performed using the nanoScan PET/CT (Mediso Medical Imaging Systems, Budapest, Hungary) and Si78 PET/CT (BRUKER, Billerica, MA) instruments. Scanners were cross-calibrated using a syringe source containing 10 MBq of [^64Cu]­CuCl2 diluted in 2 mL of 0.01 M HCl. Each mouse (n = 2) received between 7 and 10 MBq of the respective radioligand (A m = 40 GBq/μmoL) delivered in 0.154 M NaCl via intravenous injection through a tail vein catheter within the initial 30 s after scan start. […] Standardized uptake values (SUV = [MBq detected activity/mL tissue]/[MBq injected activity/g body weight]) were determined in defined volumes of interest (VOIs) and reported as VOI-averaged SUVmean ± range [min–max]. Assuming a density of 1 g/mL for body tissues, the SUVs become dimensionless.

[2] = as above; details: female, NMRI-nu/nu (Rj:NMRI-Foxn1nu/nu), mouse, iv, total radioactivity
Protocol: as §1, §2, §3

[3] = Plasma stability assay, human plasma; type: in vitro ADME; details: 37 °C, up to 24 h, single experiment, read-out: t1/2 (plasma), human
Source text: Previously, we discovered that the ^64Cu-labeled NODAGA-cLAB-TATEs with a primary amide functionality within the albumin-binding moiety are subject to a metabolic transformation in mouse plasma. In fact, the primary amide is slowly hydrolyzed to the carboxylic acid, which turned out to be catalyzed by plasma carboxylesterases as proven by blocking this transformation in the presence of bis-para-nitrophenylphosphate. […] As this transformation entails also an increase in the binding affinity to albumin, there might be effects on the biodistribution in mice, in particular the blood circulation time. To investigate this, NODAGA-cLAB6-TATE was designed, with cLAB6 (N3Bz-D-Lys(MPB)-NH2) representing the D-configured pendant of cLAB4 (N3Bz-L-Lys(MPB)-NH2). […] However, the apparent half-lives for both compounds (≈13 and >24 h) are longer compared to the half-lives previously determined for [ ^ 64 Cu]-Cu-NODAGA-cLAB3-TATE and [ ^ 64 Cu]-Cu-NODAGA-cLAB4-TATE (≈6 and ≈3 h, respectively). […]
Plasma stability of the radioligands was done as previously described for NODAGA-cLAB-TATE and NODAGA-NES-TATEs. , Briefly, an aliquot of the radioligand was added to plasma and stability was assessed at different time points by withdrawing an aliquot, followed by protein precipitation and analysis by radio-HPLC.

[4] = target: human serum albumin (HSA) (Homo sapiens, UniProt P02768); assay: Radiometric ultrafiltration assay for binding to HSA
Sequence of human serum albumin (HSA) (P02768 25-609): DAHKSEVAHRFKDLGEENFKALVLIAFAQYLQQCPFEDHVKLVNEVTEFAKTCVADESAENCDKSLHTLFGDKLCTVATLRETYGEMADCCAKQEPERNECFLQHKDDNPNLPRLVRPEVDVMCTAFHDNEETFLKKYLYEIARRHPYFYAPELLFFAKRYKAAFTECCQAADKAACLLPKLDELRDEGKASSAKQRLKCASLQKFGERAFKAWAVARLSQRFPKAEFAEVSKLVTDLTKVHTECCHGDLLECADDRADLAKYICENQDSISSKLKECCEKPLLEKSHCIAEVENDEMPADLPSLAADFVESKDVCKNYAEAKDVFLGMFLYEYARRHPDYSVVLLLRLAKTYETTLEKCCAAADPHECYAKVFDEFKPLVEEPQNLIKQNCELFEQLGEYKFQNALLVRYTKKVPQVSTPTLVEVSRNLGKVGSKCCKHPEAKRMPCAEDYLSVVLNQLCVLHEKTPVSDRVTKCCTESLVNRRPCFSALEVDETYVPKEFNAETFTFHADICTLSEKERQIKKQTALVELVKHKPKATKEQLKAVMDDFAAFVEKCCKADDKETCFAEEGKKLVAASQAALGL
Protocol: The ultrafiltration assay used to quantify the binding of the ^64Cu-labeled peptides to HSA was performed as previously described for NODAGA-cLAB-TATEs. , Briefly, a constant activity amount of the radioligands (10–15 MBq) were mixed with different HSA concentrations (200 nM–1.4 mM). Aliquots were loaded into the ultrafiltration devices (4104 centrifugal filter units by Millipore; 30 000 Da nominal molecular weight limit, methylcellulose micropartition membranes) and centrifuged. After centrifugation, aliquots from the top and bottom fractions were measured in a γ-counter (PerkinElmer, Wizard^2 2480 automatic gamma counter). The retained fraction was calculated as a quotient of these measurements. The dissociation constant, K d, was calculated using the Morrison equation.

- Kd [SST2] (SST2; 60 min 37 °C, mean (±SEM) of 2–4 experiments): no binding was detected and n.b.
- Bmax (SST2; mean (±SEM)): n.b.
- integral tumor uptake relative to [64Cu]Cu-NODAGA-cLAB4-TATE ([1]; AUC0–48h): less than 10%
- AUC0-48h heart ([1]; PET, i.v., 7–10 MBq/animal): 41.09 SUVmean*h
- AUC0-48h kidney ([1]; PET, i.v., 7–10 MBq/animal): 59.26 SUVmean*h
- AUC0-48h liver ([1]; PET, i.v., 7–10 MBq/animal): 25.84 SUVmean*h
- AUC0-48h tumor ([1]; PET, i.v., 7–10 MBq/animal): 25 SUVmean*h
- AUC0-48h tumor ([1]; PET, i.v., 7–10 MBq/animal, listed as cLAB4-scrTATE): 25.35 SUVmean*h
- AUC0–48h muscle ([1]; mouse, in vivo): 5.5 SUVmean*h
- integral tumor uptake, fold lower than [64Cu]Cu-NODAGA-TATE ([1]; mouse, in vivo): 6 fold
- integral tumor uptake, fold lower than [64Cu]Cu-NODAGA-cLAB4-TATE ([1]; mouse, in vivo): 11 fold
- SUV at 24 h ([2]; muscle): 0.04 SUV
- SUV at 24 h ([2]; tumor): 0.49 SUV
- half-life [3]: > 24 h
- Kd [4]: 42 µM
Compound: Cc1ccc(CCCC(=O)NCCCC[C@H](NC(=O)c2ccc(-n3cc(C[C@H](NC(=O)CC[C@H](C(=O)O)N4CCN(CC(=O)O)CCN(CC(=O)O)CC4)C(=O)NCCOCCOCC(=O)N[C@@H](CCCCN)C(=O)N[C@H]4CSSC[C@@H](C(=O)N[C@H](C(=O)O)[C@@H](C)O)NC(=O)[C@@H](Cc5c[nH]c6ccccc56)NC(=O)[C@@H](Cc5ccccc5)NC(=O)[C@H]([C@@H](C)O)NC(=O)[C@H](Cc5ccc(O)cc5)NC4=O)nn3)cc2)C(N)=O)cc1 [[64Cu]Cu-NODAGA-cLAB4-scrTATE, metal not drawn] (X1-[Ala(1-(4-CO-Ph)triazol-4-yl)](X2)[AEEA]KCYT[dF][dW]CT-OH; disulfide 4-9)
- binding in the cell binding and uptake assay (MPC cells; MPC cells, 20 nM, 1 h): no binding at all
- specific binding of radioligand (MPC cells; incubation at 4 °C for 1 h, washing with PBS pH 7.4, 20 nM): 0.01 % dose/mg of protein
- specific binding of radioligand (MPC cells; incubation at 4 °C for 1 h, washing with glycine buffer pH 2.8, 20 nM): 0.03 % dose/mg of protein
- specific binding of radioligand (MPC cells; incubation at 37 °C for 1 h, washing with PBS pH 7.4 (total bound), 20 nM): 0.02 %dose/mg of protein
- specific binding of radioligand (MPC cells; incubation at 37 °C for 1 h, washing with glycine buffer pH 2.8 (acid resistant), 20 nM): 0.04 %dose/mg of protein
